Results on one compound are retold here after paper PMC6222871, “Suppression of Hepatitis C Virus Genome Replication and Particle Production by a Novel Diacylglycerol Acyltransferases Inhibitor” (Molecules : A Journal of Synthetic Chemistry and Natural …, 2018).

As usually defined, the IC50 is the midpoint of a concentration-inhibition curve. The term EC50 denotes the midpoint of the concentration-response curve.

Data set [1] relates to Huh7.5 cells. Briefly: TG quantification assay in Huh7.5 cells. Format: cell-based. The note with it: 8 μM, 72 h. As for the experimental part: Cells were washed with cold PBS, suspended, and homogenized in 1 mL of 5% NP-40/ddH2O solution. Then, homogenized cells were slowly heated to 90 °C for 5 min or until the NP-40 becomes cloudy, then cooled down to room temperature. Previous step was repeated to solubilize all TG. Cells were centrifuged for 2 min at top speed using a microcentrifuge to remove any insoluble material. Samples were diluted 10-fold with ddH2O before proceeding with the assay. […] Samples were added with 50 μL of reaction mix into each well and incubated at room temperature for 60 min while protected from light. Fluorescence was measured by using a fluorometric reader with Ex/Em = 535/590 nm. The amount of TG from standard sample was calculated using the following equation: Ts=Corrected absorbance−(y−intercept)/slope The amount of intracellular TG was calculated using the following equation: Concentration=Ts/Sv*D where the Ts is the amount of TG from standard curve and Sv is the volume of sample added to sample wells and D is the sample dilution factor.

Data set [2] relates to recombinant DGAT-1. The arrangement: method as in PMID 23242135. The note with it: recombinant DGAT-1, [14C] oleoyl-CoA as acyl-donor; cited from earlier work.
Data set [3] relates to HCV genotype 1b (Huh7.5-Bart79I). In words: HCV genome replication in sub-genomic replicon Huh7.5-Bart79I cells by real-time RT-PCR. The procedure: Quantitative real-time RT-PCR analysis to measure levels of HCV RNA and GAPDH was conducted as previously described. The cDNA synthesis and reverse transcription of miR-122 were performed by using Taqman quantitative RT-PCR (qRT-PCR) analysis. Taqmanq RT-PCR components including TaqMan miR122 probe, endogenous control U6 probe, TaqMan® MicroRNA reverse transcription Kit and TaqMan® universal master mix II were purchased from Thermo Fisher Scientific (Waltham, MA, USA)
In general terms: In antiviral work, replicon cells carry a viral genome segment that copies itself.

Data set [4] deals with HepG2 cells. Also noted: method as in PMID 23242135. Particulars: [14C] glycerol as substrate; cited from earlier work.
Data set [5] has as its system JFH1-NS5A-GFP cells. In words: NS5A-GFP and Oil Red O imaging in JFH1-NS5A-GFP cells. The note with it: 72 h, dose-dependent. In kind it is cell-based, hepatitis C virus. As for the experimental part: Based on previous results, we noticed that EC50 values required for inhibition of the HCV genome replication by 10j were around 1–2 μM ranges (Figure 2 and Table 3). However, IC50 value required for inhibition of the enzymatic DGAT activities in vitro by 10j was reported to be higher than 5 μM (Table 2 and Figure 6E). Based on these observations, we hypothesized that inhibition of DGATs by 10j may not play a direct role in suppression of the viral genome replication. To test this hypothesis, we decided to study effects of 10j on DGAT and the viral genome replication in a simultaneous manner. […] Then, the viral NS3 protein and LDs were visualized by using an anti-NS3 antibody and BODIPY, respectively. […] Significant reduction of LD was only seen after treatment of 10j higher than 5 μM. In order to confirm this observation, we decided to utilize another HCV-positive cell—JFH1-NS5A-GFP cells—which were infected with infectious HCV genotype 2a particles with a visually tractable NS5A due to the presence of in-frame-fused GFP protein with NS5A. TGs of these cells were stained with ORO for visualization in parallel. […]
Immunofluorescence analysis of Huh7.5-J6/JFH1 or Huh7.5-JFH1-5A-GFP cells in the presence of 10j was conducted as previously described. Fluorescence were examined and captured by Nikon confocal laser scanning microscopic system. LD content was quantified using the ImageJ program.

The subject of data set [6] is DGATs (rat liver microsome). The arrangement: method as in PMID 23141914, PMID 23242135. Particulars: cited from earlier work.
Data set [7] addresses T1, DGAT-1 (Homo sapiens, UniProt O75907).
T1 construct: expressed in transfected cells; host or cells: 293T cells (membrane fraction)
T1 sequence (O75907 1-488): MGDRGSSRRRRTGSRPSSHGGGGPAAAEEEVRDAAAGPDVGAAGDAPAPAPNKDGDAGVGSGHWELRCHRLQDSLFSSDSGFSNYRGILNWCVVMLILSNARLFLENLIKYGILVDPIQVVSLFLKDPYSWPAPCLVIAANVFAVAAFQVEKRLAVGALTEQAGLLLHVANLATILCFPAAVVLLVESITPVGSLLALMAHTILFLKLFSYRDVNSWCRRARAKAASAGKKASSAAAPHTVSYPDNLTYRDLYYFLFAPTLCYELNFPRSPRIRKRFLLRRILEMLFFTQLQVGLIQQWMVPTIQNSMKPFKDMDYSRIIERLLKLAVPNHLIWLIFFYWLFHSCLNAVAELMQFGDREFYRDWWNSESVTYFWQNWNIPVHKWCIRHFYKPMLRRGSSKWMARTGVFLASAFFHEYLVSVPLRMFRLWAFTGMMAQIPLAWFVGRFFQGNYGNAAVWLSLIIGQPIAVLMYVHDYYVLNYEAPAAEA
Briefly: DGAT-1 in vitro assay, membrane fractions of DGAT-1-transfected 293T cells, NBD-palmitoyl CoA, TLC. In kind it is biochemical. As for the experimental part: pcDNA3.1-DGAT1 plasmid was transfected into 293T cells by using a lipofectamine 2000 transfection reagent (Invitrogen) as described by the manufacturer. At 24 h after transfection, transfected cells were harvested and cells were resuspended with 500 μL of 50 mM Tris-HCL/250 mM sucrose. Resuspended cells were disrupted by 15 passages through a 27-gauge needle and centrifugation at 600× g for 5 min. The supernatant was ultracentrifuged at […] for 30 min and the supernatant was discarded. The pellets were resuspended in a total of 500 μL of 50 mM ice-cold Tris-HCl/250 mM sucrose. Then, a master mix containing 20 μL of 1 M-Tris-HCl, 4 μL of 1 M MgCl2, 10 μL of 4 mM DOG in acetone, 10 μL of 12 mg/mL BSA and 10 μL of 500 μM NBD-palmitoyl CoA in 20 mM Tris was prepared and incubated at 37 °C for 2 min. Also, 50 μg total membrane proteins were incubated with 10j and A922500 at 37 °C for 1 h. Extracted proteins were added into master mix and incubated at 37 °C for 10 min. The reaction was terminated by adding 4 mL CHCl3/methanol (2:1, v/v). Samples were mixed by vortexing and 800 μL of water was added and remixed. Samples were allowed to sit at room temperature for 1 h. […] Plate was allowed to air dry for 1 h before quantification of reaction products. The synthesized TG was determined by the ChemiDoc imaging system (Bio-Rad, Hércules, CA, USA).

Read-outs that look alike come from different tables or passages of the source. Where only a bound is given, the exact number is not on record here.

Take `O=C(NCc1ccco1)c1ccc2[nH]c(COc3ccc(C45CC6CC(CC(C6)C4)C5)cc3)nc2c1` [10j, 2-{[4-(adamant-1yl)phenoxy]methyl)-N-(furan-2-ylmethyl)-1H-benzo[d]imidazole-5-carboxamide]: the “reduction of endogenous level of TG” value in data set [1] was 83%. Also, the half-inhibitory concentration (IC50) in data set [2] is 9 µM; in data set [6] it was 4.4 µM; in data set [7] (DGAT-1 membrane fractions from 293T cells, read-out: IC50, in vitro synthesis of TG by DGAT-1), 17.4 µM; in data set [7] (Table 2 and Figure 6E, read-out: IC50 required for inhibition of the enzymatic DGAT activities in vitro (summary)), more than 5 µM. In addition, the “T1/2, time required for reducing the viral RNAs by half” value in data set [3] (8 μM, genotype 1b) is 19.2 h. Moreover, the EC50 in data set [3] (Hepatitis C virus, 72 h, read-out: EC50 HCV RNA, subgenomic replicon) stood at 3.3 µM. Moreover, the “TG % (10 μM in HepG2), relative [14C] triglyceride percentage” value in data set [4] is on record as 45.0%. For the same compound, in data set [5], the “concentration at which reduction of NS5A-GFP expression starts” value was 5 µM.
